Results from patent publication US8273740B2, “2-sulfanyl-benzoimidazol-1-yi-acetic acid derivatives as CRTH2 antagonists” (Actelion Pharmaceuticals, Ltd., priority 2004, dated 2012).

The molecules below were run against T1, hCRTH2 receptor (Homo sapiens, UniProt Q9Y5Y4) (assay: CRTH2 membranes radioligand binding assay ({3H}-PGD2); antagonist binding to the CRTH2 receptor). Conditions: {3H}-PGD2 radioligand binding, membranes of HEK 293 cells expressing recombinant hCRTH2; read-out: hCRTH2 BDG IC50.
T1 construct: expressed in transfected cells; host or cells: clonal HEK 293 cell line (membranes)
T1 sequence (Q9Y5Y4 1-395): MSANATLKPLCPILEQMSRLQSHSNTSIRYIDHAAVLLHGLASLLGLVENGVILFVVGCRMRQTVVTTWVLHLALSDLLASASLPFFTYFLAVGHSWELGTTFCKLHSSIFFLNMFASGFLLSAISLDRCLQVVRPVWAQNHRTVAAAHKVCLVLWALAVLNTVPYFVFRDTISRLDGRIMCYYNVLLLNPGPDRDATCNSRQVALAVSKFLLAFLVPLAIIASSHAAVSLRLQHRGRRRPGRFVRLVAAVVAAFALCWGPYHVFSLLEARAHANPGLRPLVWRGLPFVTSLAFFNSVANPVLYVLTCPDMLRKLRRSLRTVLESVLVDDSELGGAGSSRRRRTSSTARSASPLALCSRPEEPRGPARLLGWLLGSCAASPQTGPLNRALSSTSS
Experimental: Preparation of CRTH2 Membranes and Radioligand Binding Assay:
Cells are detached from culture plates in 5 ml buffer A per plate (5 mM Tris, 1 mM MgCl2x6H2O, 0.1 mM PMSF, 0.1 mM phenanthroline) using a police rubber and transferred into centrifugation tubes and frozen at −80° C. After thawing, the cells are centrifuged at 500 g for 5 min and then resuspended in buffer A. Cells are then fragmented by homogenization with a Polytron homogenizer for 30 s. The membrane fragments are centrifuged at 3000 g for 40 min and resuspended in membranes in buffer B (50 mM Tris, 25 mM MgCl2, 250 mM saccharose, pH 7.4) and aliquots are stored frozen.
Binding assay is performed in a total volume of 250 μl. […] For unspecific binding, PGD2 is added to the reaction mixture at 1 μM final concentration. This binding assay mix is incubated at rt for 90 min and then filtered through a GF/C filter plate. The filter is washed three times with ice cold binding buffer. Then, 40 μl per well Microscint-40 (Packard) are added and the bound radioactivity is quantified by means of Topcount (Packard).

IC50 [nM]	Structure (SMILES)
15	CCCCC(=O)N(CCCSc1nc2ccccc2n1CC(=O)O)CC(c1ccccc1)c1ccccc1 [(2-{3-[(2,2-Diphenyl-ethyl)-pentanoyl-amino]-propylsulfanyl}-benzoimidazol-1-yl)-acetic acid]
12	CCCCC(=O)N(CCCSc1nc2ccccc2n1CC(=O)O)CCc1ccccc1 [{2-[3-(Pentanoyl-phenethyl-amino)-propylsulfanyl]-benzoimidazol-1-yl}-acetic acid]
15	COC(=O)c1cccc(CSc2nc3cc([N+](=O)[O-])ccc3n2CC(=O)O)c1 [[2-(3-Methoxycarbonyl-benzylsulfanyl)-5-nitro-benzoimidazol-1-yl]-acetic acid]
7	CCOC(=O)c1ccc(N(CCCSc2nc3ccccc3n2CC(=O)O)C(=O)C(c2ccccc2)C2CCCCC2)cc1 (racemic)
10	CCCCOC(=O)N(CCCSc1nc2ccccc2n1CC(=O)O)CCc1ccccc1

Continued, molecule first:

Structure (SMILES)	IC50 [nM]
O=C(O)Cn1c(SCC2CCN(C(=O)c3ccc(Br)cc3)C2)nc2cc(F)ccc21 (racemic)	23
O=C(O)Cn1c(SCC2CCCN(C(=O)c3ccc(Br)cc3)C2)nc2ccccc21 (racemic)	18
COc1ccc(C(C)=O)cc1CSc1nc2cc(F)ccc2n1C(C)C(=O)O (racemic)	13
CC(=O)c1ccc(OCCCO)c(CSc2nc3cc(F)ccc3n2CC(=O)O)c1 [{2-[5-Acetyl-2-(3-hydroxy-propoxy)-benzylsulfanyl]-5-fluoro-benzoimidazol-1-yl}-acetic acid]	2
CCCCOC(=O)N(CCCSc1nc2cc([N+](=O)[O-])ccc2n1CC(=O)O)CCc1ccccc1 [{2-[3-(Butoxycarbonyl-phenethyl-amino)-propylsulfanyl]-5-nitro-benzoimidazol-1-yl}-acetic acid]	1
CCCC(=O)N1CCCC(CSc2nc3cc(Cl)c(Cl)cc3n2CC(=O)O)C1 (centres unmarked) [[2-(1-Butyryl-piperidin-3-ylmethylsulfanyl)-5,6-dichloro-benzoimidazol-1-yl]-acetic acid]	4
CCCC(=O)N1CCCC(CSc2nc3ccccc3n2CC(=O)O)C1 (racemic)	22
COc1ccc(C(C)=O)cc1CSc1nc2cc(C=O)ccc2n1CC(=O)O [[2-(5-Acetyl-2-methoxy-benzylsulfanyl)-5-formyl-benzoimidazol-1-yl]-acetic acid]	6
COc1ccc(C(C)=O)cc1CSc1nc2ccccc2n1CC(=O)O [[2-(5-Acetyl-2-methoxy-benzylsulfanyl)-benzoimidazol-1-yl]-acetic acid]	9

Each molecule was assayed against T1, hCRTH2 receptor (assay: Intracellular calcium mobilization assay (FLIPR), antagonism of prostaglandin D2). Conditions: not given.
Type: cell-based
From the text: A functional assay with cells expressing the human CRTH2 receptor may be used to detect changes in the levels of intracellular calcium concentration following compound treatment. After addition of the compound the cells are challenged with PGD2. […] The relative values of the remaining activity were used to determine IC50 values by curve fitting the data to a single site to a four-parameter logistic sigmoid dose response curve of the equation (A+((B−A)/(1+((C/x)^D)))).
The ability of the compounds to inhibit PGD2 induced change of intracellular calcium levels via CRTH2 activation may be measured by methods known of one skilled in the art or by the method described below in the experimental part.
Intracellular Calcium Mobilization Assay (FLIPR):
Cells are detached from culture dishes using a dissociation buffer (0.02% EDTA in PBS, Gibco) for 1 min, and collected by centrifugation at 200 g at rt for 5 min in assay buffer [equal parts of Hank's BSS (HBSS, Bioconcept) and DMEM (low glucose, without phenol red, Gibco)].
Stock solutions of test compounds are made up at a concentration of 10 mM in DMSO, and serially diluted in assay buffer to concentrations required for inhibition dose response curves. Prostaglandin D2 (Biomol, Plymouth Meeting, Pa.) is used as an agonist.
A FLIPR384 instrument (Molecular Devices) is operated according to the manufacturer's standard instructions, adding 4 μl of test compound dissolved at 10 mM in DMSO and diluted prior to the experiment in assay buffer to obtain the desired final concentration. An assay buffer containing 10 μl of 80 nM prostaglandin D2 (Biomol, Plymouth Meeting, Pa.), supplemented with 0.8% bovine serum albumin (fatty acid content <0.02%, Sigma), is then added to obtain a final concentration of 10 nM and 0.1%, respectively. […] Emission peak values above base level after prostaglandin D2 addition are exported after base line subtraction. Values are normalized to high-level control (no test compound added) after subtraction of base line value (no prostaglandin D2 added). The program XL1fit 3.0 (IDBS) is used to fit the data to a single site dose response curve of the equation (A+((B−A)/(1+((C/x)^D)))) and to calculate the IC50 values.

Structure (SMILES)	IC50 [nM]
CCCCNC(=O)c1ccc(OC)c(CSc2nc3cc(F)ccc3n2CC(=O)O)c1 [[2-(5-Butylcarbamoyl-2-methoxy-benzylsulfanyl)-5-fluoro-benzoimidazol-1-yl]-acetic acid]	21

Same assay, conditions: HEK-293 cells expressing hCRTH2, agonist prostaglandin D2 10 nM; read-out: hCRTH2 FLIPR IC50

IC50 [nM]	Structure (SMILES)
212	O=C(O)Cn1c(SCCC(c2ccccc2)c2ccccc2)nc2ccc([N+](=O)[O-])cc21 [[2-(3,3-Diphenyl-propylsulfanyl)-6-nitro-benzoimidazol-1-yl]-acetic acid]
156	O=C(O)Cn1c(SCC2CCCN(C(=O)c3cccc(Cl)c3)C2)nc2ccccc21 (racemic)
128	CCOC(=O)c1ccc(N(CCCSc2nc3ccccc3n2CC(=O)O)C(=O)CC(c2ccccc2)c2ccccc2)cc1
15	COC(=O)c1cccc(CSc2nc3cc([N+](=O)[O-])ccc3n2CC(=O)O)c1 [[2-(3-Methoxycarbonyl-benzylsulfanyl)-5-nitro-benzoimidazol-1-yl]-acetic acid]

The remaining lines, values behind:

Structure (SMILES)	IC50 [nM]
O=C(O)Cn1c(SCC2CCN(C(=O)c3ccc(Br)cc3)C2)nc2cc(F)ccc21 (racemic)	88
COc1ccc(C(=O)N2CCc3ccccc32)cc1CSc1nc2cc(F)ccc2n1CC(=O)O [{2-[5-(2,3-Dihydro-indole-1-carbonyl)-2-methoxy-benzylsulfanyl]-5-fluoro-benzoimidazol-1-yl}-acetic acid]	4
CCCC(=O)N1CCCC(CSc2nc3cc(Cl)c(Cl)cc3n2CC(=O)O)C1 (centres unmarked) [[2-(1-Butyryl-piperidin-3-ylmethylsulfanyl)-5,6-dichloro-benzoimidazol-1-yl]-acetic acid]	148
COC(=O)c1ccc(OC)c(CSc2nc3ccccc3n2CC(=O)O)c1	201
